Measurements from paper PMC3177827 (PLoS ONE, 2011).
“Also recorded” adds a separate entry of the source. The star is where a group is joined. pNA = O=[N+]([O-])c1ccc(N*)cc1; Cbz = O=C(OCc1ccccc1)*

Columns and labels:
[1] = mixed human dental plaque bacteria; settings: cited from earlier work
[2] = bacterial suspension in saliva ion buffer (OD620 1.2); settings: up to 24 h
[3] = Whole plaque (Mixture of bacteria) suspension in saliva ion buffer; settings: human, up to 24 h
[4] = WSA-8 (Rothia aeria HOT-188) bacterial suspension in saliva ion buffer; settings: up to 24 h
[5] = WSA-26 (Rothia mucilaginosa HOT-681) bacterial suspension in saliva ion buffer; settings: up to 24 h
[6] = WSA-2B (Rothia mucilaginosa HOT-681) bacterial suspension in saliva ion buffer; settings: up to 24 h
[7] = WSA-7A (Streptococcus mitis HOT-677) bacterial suspension in saliva ion buffer; settings: up to 24 h
[8] = WSAN-25 (Veilonella atypica HOT-524) bacterial suspension in saliva ion buffer; settings: up to 24 h
[9] = PAN-5 (Bifidobacterium dentium HOT-588) bacterial suspension in saliva ion buffer; settings: up to 24 h
[10] = PAN-8 (Bifidobacterium dentium HOT-588) bacterial suspension in saliva ion buffer; settings: up to 24 h
[11] = PAN-0 (Streptococcus pneumoniae HOT-734) bacterial suspension in saliva ion buffer; settings: up to 24 h
[12] = PAN-18 (Bifidobacterium dentium HOT-588) bacterial suspension in saliva ion buffer; settings: up to 24 h
[13] = PAN-19 (Bifidobacterium dentium HOT-588) bacterial suspension in saliva ion buffer; settings: up to 24 h
[14] = PAN-23 (Bifidobacterium dentium HOT-588) bacterial suspension in saliva ion buffer; settings: up to 24 h
[15] = WSAN-14 (Bifidobacterium longum HOT-B54) bacterial suspension in saliva ion buffer; settings: up to 24 h
[16] = WSAN-16 (Bifidobacterium longum HOT-B54) bacterial suspension in saliva ion buffer; settings: up to 24 h
[17] = WSAN-24 (Bifidobacterium longum HOT-B54) bacterial suspension in saliva ion buffer; settings: up to 24 h
[18] = WSA-10 (Staphylococcus epidermidis HOT-601) bacterial suspension in saliva ion buffer; settings: up to 24 h
mammalian enzymes = settings: cited from earlier work
pepsin = pepsin (1 µg/ml in 0.1 M HCl, pH 1.0); settings: up to 24 h
trypsin = trypsin (1 µg/ml in 50 mM ammonium bicarbonate, pH 8.0); settings: up to 24 h
[19] = strain WSA-8 (R. aeria) in saliva ion buffer (OD620 1.2, pH 7.0); settings: Rothia aeria, up to 5 h
chymotrypsin = chymotrypsin (1 µg/ml in 50 mM ammonium bicarbonate, pH 8.0); settings: up to 24 h
[20] = Bifidobacterium dentium HOT-588 (strain PAN-5)
[21] = Bifidobacterium dentium HOT-588 (strain PAN-8)
[22] = Bifidobacterium dentium HOT-588 (strain PAN-18)
[23] = Bifidobacterium dentium HOT-588 (strain PAN-19)
[24] = Bifidobacterium dentium HOT-588 (strain PAN-23)
[25] = Bifidobacterium longum HOT-B54 (strain WSAN-14)
[26] = Bifidobacterium longum HOT-B54 (strain WSAN-16)
[27] = Bifidobacterium longum HOT-B54 (strain WSAN-24)
[28] = Rothia aeria HOT-188 (strain WSA-8)
[29] = Rothia mucilaginosa HOT-681 (strain WSA-2B)
[30] = Rothia mucilaginosa HOT-681 (strain WSA-26)
[31] = Staphylococcus epidermidis HOT-601 (strain WSA-10)
[32] = Streptococcus mitis HOT-677 (strain WSA-7A)
[33] = Streptococcus pneumoniae HOT-734 (strain PAN-0)
[34] = Veilonella atypica HOT-524 (strain WSAN-25)

not cleaved [2, 20]	not cleaved [2, 21]	not cleaved [2, 22]	not cleaved [2, 23]	not cleaved [2, 24]	not cleaved [2, 25]	not cleaved [2, 26]	not cleaved [2, 27]	not cleaved [2, 28]	not cleaved [2, 29]	not cleaved [2, 30]	not cleaved [2, 31]	not cleaved [2, 32]	not cleaved [2, 33]	not cleaved [2, 34]	cleaved bond [3]	not cleaved [4]	not cleaved [5]	not cleaved [6]	Substance	cleaved bond [1]	also measured
− after 24 h	− after 24 h	− after 24 h	− after 24 h	− after 24 h	− after 24 h	− after 24 h	− after 24 h	− (not cleaved) after 24 h	− (not cleaved) after 24 h	− (not cleaved) after 24 h	− after 24 h	− after 24 h	− after 24 h	− after 24 h	P-pNA	− after 24 h incubation	− after 24 h incubation	− after 24 h incubation	Cbz-Gln-Gln-Pro-pNA	P-pNA	not cleaved [7]: − after 24 h incubation; not cleaved [8]: − after 24 h incubation; not cleaved [9]: − after 24 h incubation; not cleaved [10]: − after 24 h incubation; not cleaved [11]: − after 24 h incubation; not cleaved [12]: − after 24 h incubation; not cleaved [13]: − after 24 h incubation; not cleaved [14]: − after 24 h incubation; not cleaved [15]: − after 24 h incubation; not cleaved [16]: − after 24 h incubation; not cleaved [17]: − after 24 h incubation; not cleaved [18]: − after 24 h incubation
																			Cbz-Lys-Pro-Gln-pNA		cleaved bond [4]: Q-pNA; cleaved bond [6]: Q-pNA
− after 24 h	− after 24 h	− after 24 h	− after 24 h	− after 24 h	− after 24 h	− after 24 h	− after 24 h	− (not cleaved) after 24 h	− (not cleaved) after 24 h	− (not cleaved) after 24 h	− after 24 h	− after 24 h	− after 24 h	− after 24 h	P-pNA	− after 24 h incubation	− after 24 h incubation	− after 24 h incubation	Cbz-Pro-Phe-Pro-pNA	P-pNA	not cleaved [7]: − after 24 h incubation; not cleaved [8]: − after 24 h incubation; not cleaved [9]: − after 24 h incubation; not cleaved [10]: − after 24 h incubation; not cleaved [11]: − after 24 h incubation; not cleaved [12]: − after 24 h incubation; not cleaved [13]: − after 24 h incubation; not cleaved [14]: − after 24 h incubation; not cleaved [15]: − after 24 h incubation; not cleaved [16]: − after 24 h incubation; not cleaved [17]: − after 24 h incubation; not cleaved [18]: − after 24 h incubation
− after 24 h	− after 24 h	− after 24 h	− after 24 h	− after 24 h	− after 24 h	− after 24 h	− after 24 h	− (not cleaved) after 24 h	− (not cleaved) after 24 h	− (not cleaved) after 24 h	− after 24 h	− after 24 h	− after 24 h	− after 24 h	F-pNA	− after 24 h incubation	− after 24 h incubation	− after 24 h incubation	Cbz-Pro-Pro-Phe-pNA	F-pNA	not cleaved [7]: − after 24 h incubation; not cleaved [8]: − after 24 h incubation; not cleaved [9]: − after 24 h incubation; not cleaved [10]: − after 24 h incubation; not cleaved [11]: − after 24 h incubation; not cleaved [12]: − after 24 h incubation; not cleaved [13]: − after 24 h incubation; not cleaved [14]: − after 24 h incubation; not cleaved [15]: − after 24 h incubation; not cleaved [16]: − after 24 h incubation; not cleaved [17]: − after 24 h incubation; not cleaved [18]: − after 24 h incubation
																			FLQPQQPFPQQPQQPYPQQPQQPFPQ		not cleaved (mammalian enzymes): resistant to degradation by mammalian enzymes; not cleaved (pepsin): resistant to degradation; sampled at t = 24 h; not cleaved (trypsin): resistant to degradation; sampled at t = 24 h; cleaved bond [19]: Y-P, major; not cleaved (chymotrypsin): resistant to degradation; sampled at t = 24 h
																			LQLQPFPQPQLPYPQPQLPYPQPQLPYPQPQPF		not cleaved (mammalian enzymes): resistant to degradation by mammalian enzymes; not cleaved (pepsin): resistant to degradation; sampled at t = 24 h; not cleaved (trypsin): resistant to degradation; sampled at t = 24 h; cleaved bond [19]: F-P, minor; also recorded: P-Q, minor; also recorded: Q-L, major; also recorded: Y-P, major; also recorded: Q-P, major; not cleaved (chymotrypsin): resistant to degradation; sampled at t = 24 h
															Q-pNA				benzyloxycarbonyl-YPQ-paranitroanilide	Q-pNA	cleaved bond [4]: Q-pNA; cleaved bond [5]: Q-pNA; cleaved bond [6]: Q-pNA; cleaved bond [7]: Q-pNA
